Data taken from patent US20260125379A1, “PRODRUG OF JAK KINASE INHIBITOR” (E-nitiate Biopharmaceuticals (Hangzhou) Co., Ltd, priority 2022, published 2026).
Structures can show the parent of a compound that is named as a salt.

Experiments:
JAK1 = JAK1 (Homo sapiens, UniProt P23458); assay: JAK1 kinase inhibition assay (ULight-JAK-1 substrate, Eu-labeled anti-phosphotyrosine antibody); type: biochemical; details: JAK1 10 nM, substrate 50 nM, ATP 40 μM, 2 hours at room temperature
Method: (§1) Example A: Activity Detection of JAK Kinase Small Molecule Inhibitors
(§2) Kinase reaction buffer was prepared with the following components: 50 mM HEPES, pH 7.5, 1 mM EGTA, 10 mM MgCl2, 2 mM DTT, 0.01% Tween20.
(§3) Detection buffer was prepared by diluting 10× detection buffer to IX with deionized water in a ratio of 9:1.
(§4) JAK kinase was diluted with kinase reaction buffer to 4× final concentration (JAK1: 40 nM, JAK2: 0.5 nM).
(§5) ULight™-JAK-1 (Tyr1023) substrate was diluted with kinase reaction buffer to 200 nM (final concentration: 50 nM).
(§6) ATP was diluted with kinase reaction buffer to 4× final concentration (JAK1: 160 μM, JAK2: 40 μM).
(§7) Compound to be tested was dissolved with DMSO to obtain a 10 mM storage solution, which was diluted to desired concentrations by a 3-fold gradient; for each compound 10 concentration points were set, and the final concentration of the compound to be tested ranges from 10 μM to 0.5 nM.
(§8) EDTA was dissolved with 1× detection buffer to 40 mM (EDTA final concentration: 10 mM).
(§9) Eu-labeled detection antibody (anti-phosphotyrosine (PT66)) was diluted with 1× detection buffer to 8 nM (final antibody concentration: 2 nM).
(§10) (1) To a 384-well plate, 2.5 μL 4× kinase solution and 2.5 μL 4× test compound solution with different concentrations that have been diluted were added successively, each concentration was set in duplicate, and an enzyme solution blank control and a negative control (DMSO group) were also set.
(§11) (2) The 384-well plate was shaken to mix enzyme and compound well, and then centrifuged at 1000 rpm for 1 minute, and incubated at room temperature for 60 minutes.
(§12) (3) 2.5 μL 4× substrate solution was added to the 384-well plate and centrifuged at 1000 rpm for 1 minute.
(§13) (4) 2.5 μL 4× ATP solution was added to the 384-well plate and centrifuged at 1000 rpm for 1 minute, and then enzyme reaction was initiated.
(§14) (5) For JAK1 the reaction was carried out at room temperature for 2 hours, and for JAK2 the reaction was carried out at room temperature for 1 hour.
(6) For the JAK1 reaction, the final concentrations of components are as follows: JAK1: 10 nM, substrate: 50 nM, ATP: 40 μM; and the final concentration of the tested compounds ranges from 10μ M to 0.5 nM.
(§15) (7) After the enzyme reaction was completed, 5 μL 4× enzyme reaction termination solution was added to each well of the 384-well plate, and then centrifuged at 1000 rpm for 1 minute and incubated at room temperature for 5 minutes.
(§16) (8) 5 μL 4× detection antibody solution (the final concentration of detection antibody is 2 nM) was added to each well of the 384-well plate, and then centrifuged at 1000 rpm for 1 minute and incubated at room temperature for 1 hour.
(§17) (9) At the antibody incubation was completed, signal value of each well was measured on a Envision plate reader.
(§18) (1) The percentage inhibition rate corresponding to each concentration of the tested compound was calculated on the basis that the blank control of enzyme solution corresponds to 100% and the negative control (DMSO group) corresponds to 0%.
(§19) (2) A nonlinear regression analysis of the logarithm of the concentration of the detected compound and the corresponding percentage inhibition rate was performed in GraphPad Prism software to obtain the half-inhibiting concentration (IC50) of the tested compound.

JAK2 = JAK2 (Homo sapiens, UniProt O60674); assay: JAK2 kinase inhibition assay (ULight-JAK-1 substrate, Eu-labeled anti-phosphotyrosine antibody); type: biochemical; details: JAK2 0.125 nM, substrate 50 nM, ATP 10 μM, 1 hour at room temperature
Method: as §1, §2, §3, §4, §5, §6, §7, §8, §9, §10, §11, §12, §13, §14
For the JAK2 reaction, the final concentrations of component are as follows: JAK2: 0.125 nM, substrate: 50 nM, ATP: 10 μM; and the final concentration of the tested compound ranges from 10 μM to 0.5 nM.
as §15, §16, §17, §18, §19

Chain of JAK1 (P23458 whole entry, species assumed): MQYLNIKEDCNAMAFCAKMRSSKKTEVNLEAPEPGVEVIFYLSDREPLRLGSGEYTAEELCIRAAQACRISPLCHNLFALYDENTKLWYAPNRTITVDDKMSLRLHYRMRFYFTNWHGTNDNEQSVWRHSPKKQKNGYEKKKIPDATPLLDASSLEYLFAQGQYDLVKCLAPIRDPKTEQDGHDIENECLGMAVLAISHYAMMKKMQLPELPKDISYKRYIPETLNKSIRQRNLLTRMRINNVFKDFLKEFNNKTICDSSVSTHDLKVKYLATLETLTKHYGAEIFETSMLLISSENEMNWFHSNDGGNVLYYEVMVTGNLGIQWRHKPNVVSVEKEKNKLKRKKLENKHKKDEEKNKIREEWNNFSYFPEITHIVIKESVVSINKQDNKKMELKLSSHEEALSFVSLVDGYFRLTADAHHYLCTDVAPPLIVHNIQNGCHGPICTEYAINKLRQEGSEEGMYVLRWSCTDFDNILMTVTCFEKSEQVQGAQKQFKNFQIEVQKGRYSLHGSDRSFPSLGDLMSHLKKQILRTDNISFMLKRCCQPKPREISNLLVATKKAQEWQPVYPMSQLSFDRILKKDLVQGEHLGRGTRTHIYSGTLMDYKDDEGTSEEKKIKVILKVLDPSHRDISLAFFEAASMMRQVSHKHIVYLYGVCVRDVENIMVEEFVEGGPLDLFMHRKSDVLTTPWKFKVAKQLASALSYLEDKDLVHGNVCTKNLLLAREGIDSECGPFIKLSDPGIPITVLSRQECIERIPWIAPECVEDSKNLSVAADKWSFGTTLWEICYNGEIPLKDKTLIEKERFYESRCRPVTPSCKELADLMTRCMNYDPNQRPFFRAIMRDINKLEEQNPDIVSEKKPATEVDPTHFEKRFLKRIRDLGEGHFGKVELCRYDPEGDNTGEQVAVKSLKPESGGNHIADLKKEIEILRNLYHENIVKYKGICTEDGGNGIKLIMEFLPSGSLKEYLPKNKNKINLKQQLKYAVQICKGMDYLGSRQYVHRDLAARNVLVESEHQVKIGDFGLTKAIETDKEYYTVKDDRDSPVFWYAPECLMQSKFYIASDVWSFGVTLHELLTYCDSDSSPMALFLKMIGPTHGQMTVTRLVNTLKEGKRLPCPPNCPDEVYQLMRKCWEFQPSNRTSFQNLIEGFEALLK
Chain of JAK2 (O60674 whole entry, species assumed): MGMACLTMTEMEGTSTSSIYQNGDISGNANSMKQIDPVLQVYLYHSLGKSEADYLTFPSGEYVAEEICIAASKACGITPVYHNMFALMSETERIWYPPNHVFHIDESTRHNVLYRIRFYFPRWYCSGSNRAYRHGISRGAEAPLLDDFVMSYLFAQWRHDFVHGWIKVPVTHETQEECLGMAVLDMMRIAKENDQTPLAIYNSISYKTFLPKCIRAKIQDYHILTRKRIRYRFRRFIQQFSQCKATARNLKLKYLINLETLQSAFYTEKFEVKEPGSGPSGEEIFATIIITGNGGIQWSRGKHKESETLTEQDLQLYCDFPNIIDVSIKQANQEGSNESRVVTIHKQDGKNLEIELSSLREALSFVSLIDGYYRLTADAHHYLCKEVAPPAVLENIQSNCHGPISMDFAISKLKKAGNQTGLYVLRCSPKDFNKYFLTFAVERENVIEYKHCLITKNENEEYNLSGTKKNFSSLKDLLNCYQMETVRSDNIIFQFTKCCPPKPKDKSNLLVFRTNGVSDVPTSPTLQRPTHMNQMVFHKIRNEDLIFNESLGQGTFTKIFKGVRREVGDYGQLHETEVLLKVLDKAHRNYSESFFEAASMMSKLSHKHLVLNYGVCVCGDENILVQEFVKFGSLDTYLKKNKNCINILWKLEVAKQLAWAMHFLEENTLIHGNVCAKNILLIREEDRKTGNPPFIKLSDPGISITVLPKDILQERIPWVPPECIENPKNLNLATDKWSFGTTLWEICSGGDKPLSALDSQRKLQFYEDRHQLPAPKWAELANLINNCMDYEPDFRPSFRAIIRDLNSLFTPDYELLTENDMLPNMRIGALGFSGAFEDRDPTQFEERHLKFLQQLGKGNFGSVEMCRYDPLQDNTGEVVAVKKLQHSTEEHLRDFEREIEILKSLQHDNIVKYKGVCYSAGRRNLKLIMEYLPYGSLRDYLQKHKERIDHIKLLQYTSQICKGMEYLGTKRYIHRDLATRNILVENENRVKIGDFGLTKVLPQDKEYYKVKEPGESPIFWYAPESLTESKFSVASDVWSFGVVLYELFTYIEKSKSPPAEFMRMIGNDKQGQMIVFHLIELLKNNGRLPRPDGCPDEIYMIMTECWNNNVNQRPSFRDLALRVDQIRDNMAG

| SMILES | IC50 (JAK1) | IC50 (JAK2) |
| --- | --- | --- |
| C[C@@H](OC(=O)Nc1ccccc1/N=N/c1ccc(O)c(C(=O)O)c1)c1nc2cnc3[nH]ccc3c2n1N1CCC(CC#N)CC1 [Compound A4] | 105 nM | 100 nM |
| CC(=O)O[C@H](C)c1nc2cnc3[nH]ccc3c2n1N1CCC(CC#N)CC1 [Compound A5, (R)-1-(1-(4-(cyanomethyl)piperidin-1-yl)-1,6-dihydroimidazo[4,5-d]pyrrolo[2,3-b]pyridin-2-yl)ethyl acetate] | 1.83 nM | 4.04 nM |
| C[C@@H](OC(=O)CCCCO[N+](=O)[O-])c1nc2cnc3[nH]ccc3c2n1N1CCC(CC#N)CC1 [Compound A6, (R)-1-(1-(4-(cyanomethyl)piperidin-1-yl)-1,6-dihydroimidazo[4,5-d]pyrrolo[2,3-b]pyridin-2-yl)ethyl 5-(nitrooxy)valerate] | 31.3 nM | 40.3 nM |
| C[C@@H](OC(=O)CN(C)C)c1nc2cnc3[nH]ccc3c2n1N1CCC(CC#N)CC1 [Compound A7, (R)-1-(1-(4-(cyanomethyl)piperidin-1-yl)-1,6-dihydroimidazo[4,5-d]pyrrolo[2,3-b]pyridin-2-yl)ethyl dimethylglycinate] | 3.85 nM | 57.8 nM |
| CC(C)[C@@H](N)C(=O)O[C@H](C)c1nc2cnc3[nH]ccc3c2n1N1CCC(CC#N)CC1 [Compound A8, (R)-1-(1-(4-(cyanomethyl)piperidin-1-yl)-1,6-dihydroimidazo[4,5-d]pyrrolo[2,3-b]pyridin-2-yl)ethyl D-valinate] | 5.86 nM | 72 nM |
| CC(C)[C@H](N)C(=O)O[C@H](C)c1nc2cnc3[nH]ccc3c2n1N1CCC(CC#N)CC1 [Compound A9, (R)-1-(1-(4-cyanomethylpiperidin-1-yl)-1,6-dihydroimidazo[4,5-d]pyrrolo[2,3-b]pyridin-2-yl)ethyl L-valinate] | 3.05 nM | 56.4 nM |
| COC(=O)/C=C/C(=O)OCO[C@H](C)c1nc2cnc3[nH]ccc3c2n1N1CCC(CC#N)CC1 [Compound A10, (R)-(1-(1-(4-(cyanomethyl)piperidin-1-yl)-1,6-dihydroimidazo[4,5-d]pyrrolo[2,3-b]pyridin-2-yl)ethoxy)methyl monomethyl fumarate] | 96.7 nM | 21.1 nM |
| CSCC1(C)CCN(n2c(CO[N+](=O)[O-])nc3cnc4[nH]ccc4c32)CC1 [Compound A11, (1-(4-Methyl-4-((methylthio)methyl)piperidin-1-yl)-1,6-dihydroimidazo[4,5-d]pyrrolo[2,3-b]pyridin-2-yl)methyl nitrate] | 5.62 nM | 4.19 nM |
| CSCC1(C)CCN(n2c(CCO[N+](=O)[O-])nc3cnc4[nH]ccc4c32)CC1 [Compound A12, 2-(1-(4-Methyl-4-((methylthio)methyl)piperidin-1-yl)-1,6-dihydroimidazo[4,5-d]pyrrolo[2,3-b]pyridin-2-yl)ethyl nitrate] | 38.9 nM | 37.9 nM |

The next lines start with the values.

| IC50 (JAK1) | IC50 (JAK2) | SMILES |
| --- | --- | --- |
| 2.15 nM | 38.7 nM | Nc1nc2cnc3[nH]ccc3c2n1N1CCCCC1 [Compound B1, 1-(Piperidin-1-yl)-1,6-dihydroimidazo[4,5-d]pyrrolo[2,3-b]pyridin-2-amine] |
| 0.045 nM | 0.1 nM | N#CCS(=O)(=O)NCC1CCN(n2c(N)nc3cnc4[nH]ccc4c32)CC1 [Compound B2, N-((1-(2-aminoimidazo[4,5-d]pyrrolo[2,3-b]pyridin-1(6H)-yl)-piperidin-4-yl)methyl)-1-cyano methanesulfonamide] |
| 0.47 nM | 1.74 nM | N#CCC1CCN(n2c(N)nc3cnc4ccsc4c32)CC1 [Compound B4, 2-(1-(2-amino-1H-imidazo[4,5-d]thieno[3,2-b]pyridin-1-yl)piperidin-4-yl)acetonitrile] |
| 1.33 nM | 7.15 nM | N#CC[C@H]1CC[C@H](n2c(N)nc3cnc4ccoc4c32)CC1 [Compound B5, 2-((1R,4R)-4-(2-amino-1H-furo[3,2-b]imidazo[4,5-d]pyridin-1-yl)cyclohexyl)acetonitrile] |
| 1 nM | 0.27 nM | N#CCC1CCN(n2c(/N=N/c3ccc(O)c(C(=O)O)c3)nc3cnc4[nH]ccc4c32)CC1 [Compound B7, (E)-5-((1-(4-cyanomethylpiperidin-1-yl)-1,6-dihydroimidazo[4,5-d]pyrrolo[2,3-b]pyridin-2-yl)diazenyl)-2-hydroxybenzoic acid] |
| 1.75 nM | 4.26 nM | N#CC[C@H]1CC[C@H](n2c(/N=N/c3ccc(O)c(C(=O)N[C@H](CC(=O)O)C(=O)O)c3)nc3cnc4[nH]ccc4c32)CC1 [Compound B8, (5-((E)-(1-((1R,4R)-4-(cyanomethyl)cyclohexyl)-1,6-dihydroimidazo[4,5-d]pyrrolo[2,3-b]pyridin-2-yl)diazenyl)-2-hydroxybenzoyl)-D-aspartic acid] |
| 2.52 nM | 6.62 nM | N#CC[C@H]1CC[C@H](n2c(/N=N/c3ccc(O)c(C(=O)N[C@H](CCCCN)C(=O)O)c3)nc3cnc4[nH]ccc4c32)CC1 [Compound B9, (5-((E)-(1-((1R,4R)-4-(cyanomethyl)cyclohexyl)-1,6-dihydroimidazo[4,5-d]pyrrolo[2,3-b]pyridin-2-yl)diazenyl)-2-hydroxybenzoyl)-D-lysine] |
| 1.34 nM | 0.28 nM | N#CC[C@H]1CC[C@H](n2c(/N=N/c3ccc(O)c(C(=O)N[C@H](CCC(=O)O)C(=O)O)c3)nc3cnc4[nH]ccc4c32)CC1 [Compound B10, (5-((E)-(1-((1R,4R)-4-(cyanomethyl)cyclohexyl)-1,6-dihydroimidazo[4,5-d]pyrrolo[2,3-b]pyridin-2-yl)diazenyl)-2-hydroxybenzoyl)-D-glutamic acid] |
| 1.6 nM | 3.38 nM | N#CC[C@H]1CC[C@H](n2c(/N=N/c3ccc(O)c(C(=O)N[C@H](CCCN=C(N)N)C(=O)O)c3)nc3cnc4[nH]ccc4c32)CC1 [Compound B11, (R)-2-(5-((E)-(1-((1R,4R)-4-(cyanomethyl)cyclohexyl)-1,6-dihydroimidazo[4,5-d]pyrrolo[2,3-b]pyridin-2-yl)diazenyl)-2-hydroxybenzamido)-5-((diaminomethylene)amino)valeric acid] |
| 1.02 nM | 0.47 nM | N#CC[C@H]1CC[C@H](n2c(/N=N/c3ccc(O)c(C(=O)NCCS(=O)(=O)O)c3)nc3cnc4[nH]ccc4c32)CC1 [Compound B12, 2-(5-((E)-(1-((1R,4R)-4-(cyanomethyl)cyclohexyl)-1,6-dihydroimidazo[4,5-d]pyrrolo[2,3-b]pyridin-2-yl)diazenyl)-2-hydroxybenzamido) ethan-1-sulfonic acid] |
